Literature values as cited in patent publication US10231936B2, “Delayed release pharmaceutical formulations” (Euro-Celtique S.A., priority 2000, dated 2019).
Where a name gives a salt, the structure may show the parent alone. Read-outs that look alike come from different tables or passages of the source.

Tests used:
[1] = by mouth
[2] = conventional normal release dosage form
[3] = spheroids in capsules

Compound	bioavailability [1]	elimination half-life [2]	further results
CCC(=O)O[C@]1(C(=O)SCF)[C@H](C)C[C@H]2[C@@H]3C[C@H](F)C4=CC(=O)C=C[C@]4(C)[C@@]3(F)[C@@H](O)C[C@@]21C [Fluticasone, Fluticasone Propionate]	low bioavailability		
CN1CCN(C(=O)OC2c3nccnc3C(=O)N2c2ccc(Cl)cn2)CC1 (stereo not drawn) [Zopiclone]		~2 h	
C[C@]12C=CC(=O)C=C1CC[C@@H]1[C@@H]2[C@@H](O)C[C@@]2(C)[C@H]1CC[C@]2(O)C(=O)COC(=O)c1cccc(S(=O)(=O)[O-])c1.[Na+] [PSMB, Prednisolone sodium metasulphobenzoate]	very low bioavailability		
CCCC1O[C@@H]2C[C@H]3[C@@H]4CCC5=CC(=O)C=C[C@]5(C)[C@H]4[C@@H](O)C[C@]3(C)[C@]2(C(=O)CO)O1 (stereo partly drawn) [Budesonide]			total absorbed Budesonide absorbed in the ileum and ascending colon ([3]; fasting healthy subjects): 68%; total absorbed Budesonide absorbed in the ileum and ascending colon ([3]; fed healthy subjects): 69%
Cc1ccc(-c2nc3ccc(C)cn3c2CC(=O)N(C)C)cc1 [Zolpidem tartrate]		~2 h	
